Literature values, collected in patent US20230041138A1, “TREATMENT OF HIS HYPORESPONDERS” (NewAmsterdam Pharma B.V. (Dutch Registration No. 55971946), priority 2021, published 2023).

System: LDL-C
Conditions: rosuvastatin 20 mg; cited from earlier work

SMILES: CC(C)c1nc(N(C)S(C)(=O)=O)nc(-c2ccc(F)cc2)c1/C=C/[C@@H](O)C[C@@H](O)CC(=O)O [rosuvastatin]
- median LDL-C lowering response: 50%
- share of patients with LDL-C reduction <50%: 43%
